Results: patent US6956040B2, “Oxazolidinone piperazinyl derivatives as potential antimicrobials” (Ranbaxy Laboratories Limited, priority 2001, dated 2005)
Converted amounts (≈) assume the structure as drawn.

Tests used:
S. pyogenes 19615 = assay: MIC, agar incorporation method; format: cell-based, Streptococcus pyogenes; details: S. pyogenes 19615; agar incorporation
Text: (§1) The compounds of the invention display antibacterial activity when tested by the agar incorporation method. The following minimum inhibitory concentrations (μg/ml) were obtained for representative compounds of the invention which are given below in the following tables.
(§2) • 1) S.aureus ATCC 25923—Staphylococus aureus ATCC 25923 • 2) MRSA 15187—Methicillin Resistant Staphylococcus aureus • 3) Ent. faecalis ATCC 29212—Enterococcus faecalis ATCC 29212 • 4) Ent. faecium 6A—Enterococcus faecium 6A Van®, Cipro® • 5) Strep. pne. ATCC 6303—Streptococcus pneumoniae ATCC 6303 • 6) Strep. pyog. ATCC 19615—Streptococcus pyogenes • 7) S. epidermidis—Staphylococcus epidermidis ATCC 12228
(§3) Briefly, the compounds were dissolved in DMSO and doubling dilution of the compounds were incorporated into Meuller Hilton agar before solidification. Inoculum was prepared by suspending 4 to 5 colonies into 5 ml of normal saline solution and adjusting the turbidity to 0.5 Macfarland turbidity standard tables (1.5×10^8 CFU/ml), after appropriate dilutions, 10^4 CFU/spot was transfered into the surface of dried plate and incubated for 18 hours (24 hours for MRSN studies). The concentration showing no growth of the inoculated culture was recorded as the MIC. Appropriate ATCC standard strains were simultaneously tested and result recorded only when the MIC's against standard antibiotics were within the acceptable range.

MRSA 15187 = assay: MIC, agar incorporation method; format: cell-based, Staphylococcus aureus; details: MRSA 15187; agar incorporation
Text: as §1, §2, §3

S. aureus 25923 = assay: MIC, agar incorporation method; format: cell-based, Staphylococcus aureus; details: S. aureus 25923; agar incorporation
Text: as §1, §2, §3

MRSA 562 = assay: MIC, agar incorporation method; format: cell-based, Staphylococcus aureus; details: MRSA 562
Experimental: as §1, §3

MRSA 33 = assay: MIC, agar incorporation method; format: cell-based, Staphylococcus aureus; details: MRSA 33; agar incorporation
Experimental: as §1, §3

S. pneum AB 34 = assay: MIC, agar incorporation method; format: cell-based, Streptococcus pneumoniae; details: S. pneum AB 34; agar incorporation
Experimental: as §1, §3

E. faecalis 29212 = assay: MIC, agar incorporation method; format: cell-based, Enterococcus faecalis; details: E. faecalis 29212; agar incorporation
Text: as §1, §2, §3

VRE 6A = assay: MIC, agar incorporation method; format: cell-based, Enterococcus faecium; details: VRE 6A; agar incorporation
Text: as §1, §2, §3

S. pneum 6303 = assay: MIC, agar incorporation method; format: cell-based, Streptococcus pneumoniae; details: S. pneum 6303; agar incorporation
Text: as §1, §2, §3

S. pneumoniae = assay: Summary of in vitro activity (MIC) against S. pneumoniae; format: cell-based, Streptococcus pneumoniae; details: S. pneumoniae; for MIC50 / MIC90: Number 19
Experimental: as §1, §3

G+ve = assay: Summary of in vitro activity (MIC) against G+ve bacteria; format: cell-based; details: for MIC50 / MIC90: G+ve, Number 49; for Geometric Mean of in vitro activity (MIC): Gram +ve
Experimental: as §1, §3

E. faecalis = assay: Summary of in vitro activity (MIC) against E. faecalis; format: cell-based, Enterococcus faecalis; details: E. faecalis; for MIC50 / MIC90: Number 7
Experimental: as §1, §3

S. aureus = assay: Summary of in vitro activity (MIC) against S. aureus; format: cell-based, Staphylococcus aureus; details: S. aureus; for MIC50 / MIC90: Number 8
Experimental: as §1, §3

MIC (S. pyogenes 19615) | MIC (MRSA 15187) | MIC (S. aureus 25923) | MIC (MRSA 562; agar incorporation, Table 1) | MIC (MRSA 33) | MIC (S. pneum AB 34) | MIC (E. faecalis 29212) | MIC (VRE 6A) | MIC (S. pneum 6303) | Geometric Mean of in vitro activity (MIC) (S. pneumoniae) | MIC50 (S. pneumoniae) | MIC90 (S. pneumoniae) | MIC50 (G+ve) | MIC90 (G+ve) | Geometric Mean of in vitro activity (MIC) (G+ve) | Structure (SMILES) | also measured
8 µg/mL (≈ 17.4 µM) | 2 µg/mL (≈ 4.36 µM) | 2 µg/mL (≈ 4.36 µM) | 1 µg/mL (≈ 2.18 µM) | 2 µg/mL (≈ 4.36 µM) | 8 µg/mL (≈ 17.4 µM) | 8 µg/mL (≈ 17.4 µM) | 8 µg/mL (≈ 17.4 µM) | 8 µg/mL (≈ 17.4 µM) | – | – | – | – | – | – | CC(=O)NC[C@H]1CN(c2ccc(N3CCN(Cc4ccc(C=NN)o4)CC3)c(F)c2)C(=O)O1 [Compound No. 62, (S)-N-[[3-[3-Fluoro-4[N-1-[4-{2-furyl-(5-hydrazone)-methyl}]-piperazinyl]-phenyl]-2-oxo-5-oxazolidinyl]-methyl]acetamide] | –
0.125 µg/mL (≈ 0.255 µM) | 1 µg/mL (≈ 2.04 µM) | 1 µg/mL (≈ 2.04 µM) | 0.5 µg/mL (≈ 1.02 µM) | 1 µg/mL (≈ 2.04 µM) | 2 µg/mL (≈ 4.09 µM) | 0.5 µg/mL (≈ 1.02 µM) | 0.25 µg/mL (≈ 0.511 µM) | 0.5 µg/mL (≈ 1.02 µM) | 1.41 µg/mL | 1 µg/mL (≈ 2.04 µM) | 2 µg/mL (≈ 4.09 µM) | 1 µg/mL (≈ 2.04 µM) | 2 µg/mL (≈ 4.09 µM) | 0.72 µg/mL | CC(=O)NC[C@H]1CN(c2ccc(N3CCC(N(C)Cc4ccc([N+](=O)[O-])o4)CC3)c(F)c2)C(=O)O1 [Compound No. 50, (S)-N-[[3-[4-[4-(N-methyl-N-2-furyl(5-nitro)methyl)-aminopiperidine-1-yl]-3-fluorophenyl]-2oxo-oxazolidin-5-yl]methyl]acetamide] | MIC (MRSA 562; Table 5): 0.5 µg/mL (≈ 1.02 µM); Geometric Mean of in vitro activity (MIC) (E. faecalis): 0.42 µg/mL; MIC50 (E. faecalis): 0.5 µg/mL (≈ 1.02 µM); MIC90 (E. faecalis): 1 µg/mL (≈ 2.04 µM); Geometric Mean of in vitro activity (MIC) (S. aureus): 1 µg/mL; MIC50 (S. aureus): 1 µg/mL (≈ 2.04 µM); MIC90 (S. aureus): 2 µg/mL (≈ 4.09 µM)
– | – | – | – | – | – | – | – | – | 2.16 µg/mL | 4 µg/mL (≈ 12 µM) | 32 µg/mL (≈ 95.7 µM) | 4 µg/mL (≈ 12 µM) | 32 µg/mL (≈ 95.7 µM) | 0.76 µg/mL | CC1(C)S[C@@H]2[C@H](NC(=O)Cc3ccccc3)C(=O)N2[C@H]1C(=O)O [Penicillin G, reference compound] | –

Second part, the compound before the results:

Structure (SMILES) | MIC (S. pyogenes 19615) | MIC (MRSA 15187) | MIC (S. aureus 25923) | MIC (MRSA 562; agar incorporation, Table 1) | MIC (MRSA 33) | MIC (S. pneum AB 34) | MIC (E. faecalis 29212) | MIC (VRE 6A) | MIC (S. pneum 6303) | Geometric Mean of in vitro activity (MIC) (S. pneumoniae) | MIC50 (S. pneumoniae) | MIC90 (S. pneumoniae) | MIC50 (G+ve) | MIC90 (G+ve) | Geometric Mean of in vitro activity (MIC) (G+ve) | also measured
CC(=O)NC[C@H]1CN(c2ccc(N3CCN(Cc4cccn4C)CC3)c(F)c2)C(=O)O1 [Compound No. 22, (S)-N[[3-[3-Fluoro-4-[N-1[4-{2-pyrrole(1-methyl)methyl}]-piperazinyl]phenyl]2-oxo-5-oxazolidinyl]methyl]acetamide] | 1 µg/mL (≈ 2.33 µM) | 8 µg/mL (≈ 18.6 µM) | 2 µg/mL (≈ 4.66 µM) | 4 µg/mL (≈ 9.31 µM) | 8 µg/mL (≈ 18.6 µM) | 1 µg/mL (≈ 2.33 µM) | 8 µg/mL (≈ 18.6 µM) | 8 µg/mL (≈ 18.6 µM) | 1 µg/mL (≈ 2.33 µM) | – | – | – | – | – | – | –
CC(=O)NC[C@H]1CN(c2ccc(N3CC4C(CN(C)Cc5ccc([N+](=O)[O-])o5)C4C3)c(F)c2)C(=O)O1 (stereo partly drawn) [Compound No. 40, (S)-N-[[3-[3-Fluoro[4-[3-(1α,5α,6α)-6-[N-(5-nitro-2-furylmethyl)-N-methyl]aminomethyl]-3-azabicyclo-[3.1.0]hexane]phenyl]-2-oxo-5-oxazolidinyl]methyl]acetamide] | 0.125 µg/mL (≈ 0.249 µM) | 2 µg/mL (≈ 3.99 µM) | 2 µg/mL (≈ 3.99 µM) | 1 µg/mL (≈ 1.99 µM) | 2 µg/mL (≈ 3.99 µM) | 2 µg/mL (≈ 3.99 µM) | 2 µg/mL (≈ 3.99 µM) | 4 µg/mL (≈ 7.98 µM) | – | 0.71 µg/mL | 1 µg/mL (≈ 1.99 µM) | 1 µg/mL (≈ 1.99 µM) | 1 µg/mL (≈ 1.99 µM) | 2 µg/mL (≈ 3.99 µM) | 0.93 µg/mL | Geometric Mean of in vitro activity (MIC) (E. faecalis): 2.38 µg/mL; MIC50 (E. faecalis): 2 µg/mL (≈ 3.99 µM); MIC90 (E. faecalis): 4 µg/mL (≈ 7.98 µM); Geometric Mean of in vitro activity (MIC) (S. aureus): 1.83 µg/mL; MIC50 (S. aureus): 2 µg/mL (≈ 3.99 µM); MIC90 (S. aureus): 4 µg/mL (≈ 7.98 µM)
CC(=O)NC[C@H]1CN(c2ccc(N3CCN(Cc4cccs4)CC3)c(F)c2)C(=O)O1 [Compound No. 12, (S)-N-[[3-[3-Fluoro-4-[N-1[4-(2-thienylmethyl)]piperazinyl]-phenyl]-2-oxo-5-oxazolidinyl]methyl]acetamide] | 4 µg/mL (≈ 9.25 µM) | 8 µg/mL (≈ 18.5 µM) | 8 µg/mL (≈ 18.5 µM) | 8 µg/mL (≈ 18.5 µM) | 8 µg/mL (≈ 18.5 µM) | 8 µg/mL (≈ 18.5 µM) | 8 µg/mL (≈ 18.5 µM) | 8 µg/mL (≈ 18.5 µM) | 8 µg/mL (≈ 18.5 µM) | – | – | – | – | – | – | –
CC(=O)NC[C@H]1CN(c2ccc(N3CCN(Cc4cc(Br)cs4)CC3)c(F)c2)C(=O)O1 [Compound No. 14, (S)-N-[[3-[3-Fluoro-4-[N-1[4-{2-thienyl(4-bromo)methyl}]-piperazinyl]phenyl]-2-oxo-5-oxazolidinyl]methyl]acetamide] | 2 µg/mL (≈ 3.91 µM) | 2 µg/mL (≈ 3.91 µM) | 4 µg/mL (≈ 7.82 µM) | 2 µg/mL (≈ 3.91 µM) | 2 µg/mL (≈ 3.91 µM) | 4 µg/mL (≈ 7.82 µM) | 2 µg/mL (≈ 3.91 µM) | 2 µg/mL (≈ 3.91 µM) | 4 µg/mL (≈ 7.82 µM) | – | – | – | – | – | – | –
